26 compounds from US8796268B2, “Heteroaryls and uses thereof” (Millennium Pharmaceuticals, Inc., priority 2010, dated 2014) can be followed below.

Holding throughout (type): biochemical
One test deals with T1, Human PI3K gamma (Homo sapiens, UniProt P48736).
T1 construct: His (N); host or cells: SF9 insect cells (baculovirus)
Kind of test: Human PI3K gamma enzyme assay (HTRF). To be noted: concentration not given, b1389 states 1.0 μM for PI3K δ and γ; for inhibition at 1 µM: read-out: p110 gamma Percent Inhibition. The method in brief:
(§1)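 Compounds were mixed with 25 uM ATP, then with 3.5 uM di-C8 PI(4,5)P2 and His-tagged PI3K isoform (β 5.25 nM, δ 0.75 nM, γ 5 nM) at pH 7.00. After 30 min at room temperature, EDTA stopped the reaction and PIP3 was measured by HTRF over 1 h.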
(Time-resolved FRET reads energy transfer from a long-lived donor to a nearby acceptor.)

For another test, the target named is T2, Human PI3K delta (Homo sapiens, UniProt O00329).
T2 construct: His (N); host or cells: SF9 insect cells (baculovirus)
Kind of test: Human PI3K delta enzyme assay (HTRF). As to conditions: concentration not given, b1389 states 1.0 μM for PI3K δ and γ; for inhibition at 1 µM: read-out: p110 delta Percent Inhibition. The method in brief: as §1

For a further test, the target named is T3, Human PI3K alpha (Homo sapiens, UniProt P42336).
T3 construct: His (N); host or cells: SF9 insect cells (baculovirus)
The experiment in a line: Human PI3K alpha enzyme assay (HTRF). As to conditions: concentration not given, b1387 states 1.1 μM for PI3K α and β; for inhibition at 1.1 µM: read-out: p110 alpha Percent Inhibition.

The target of another test is T4, Human PI3K beta (Homo sapiens, UniProt P42338).
T4 construct: His (N); host or cells: SF9 insect cells (baculovirus)
The experiment in a line: Human PI3K beta enzyme assay (HTRF). To be noted: concentration not given, b1387 states 1.1 μM for PI3K α and β; for inhibition at 1.1 µM: read-out: p110 beta Percent Inhibition. The method in brief:
as §1

T1 sequence (P48736 whole entry): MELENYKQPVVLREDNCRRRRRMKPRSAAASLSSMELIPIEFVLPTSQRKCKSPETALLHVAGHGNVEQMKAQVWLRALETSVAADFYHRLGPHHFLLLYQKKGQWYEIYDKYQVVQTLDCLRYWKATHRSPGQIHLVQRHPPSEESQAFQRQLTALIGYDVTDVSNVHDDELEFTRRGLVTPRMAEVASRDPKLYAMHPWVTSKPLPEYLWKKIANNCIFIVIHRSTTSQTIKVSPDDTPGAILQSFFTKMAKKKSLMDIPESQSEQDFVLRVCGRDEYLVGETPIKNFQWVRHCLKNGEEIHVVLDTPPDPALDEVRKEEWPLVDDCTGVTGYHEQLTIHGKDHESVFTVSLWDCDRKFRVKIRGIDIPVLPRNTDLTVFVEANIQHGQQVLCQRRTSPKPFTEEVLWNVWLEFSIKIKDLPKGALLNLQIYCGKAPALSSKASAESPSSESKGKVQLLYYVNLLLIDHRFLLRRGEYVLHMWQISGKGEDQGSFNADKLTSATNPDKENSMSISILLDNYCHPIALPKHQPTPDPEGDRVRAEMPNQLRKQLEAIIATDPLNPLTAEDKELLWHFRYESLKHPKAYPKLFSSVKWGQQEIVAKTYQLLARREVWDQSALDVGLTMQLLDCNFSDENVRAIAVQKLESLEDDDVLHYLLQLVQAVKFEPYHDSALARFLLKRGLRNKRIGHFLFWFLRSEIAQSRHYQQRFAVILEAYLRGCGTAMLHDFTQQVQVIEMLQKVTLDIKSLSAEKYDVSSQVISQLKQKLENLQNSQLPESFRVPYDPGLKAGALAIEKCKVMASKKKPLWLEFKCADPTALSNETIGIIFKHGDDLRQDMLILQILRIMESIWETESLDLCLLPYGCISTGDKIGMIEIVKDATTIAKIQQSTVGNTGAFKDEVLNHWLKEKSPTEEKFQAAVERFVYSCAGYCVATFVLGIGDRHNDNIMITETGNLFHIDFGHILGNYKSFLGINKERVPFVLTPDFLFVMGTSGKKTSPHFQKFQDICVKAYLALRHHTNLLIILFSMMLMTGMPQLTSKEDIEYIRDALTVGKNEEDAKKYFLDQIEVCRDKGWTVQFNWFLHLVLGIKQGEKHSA
T2 sequence (O00329 whole entry): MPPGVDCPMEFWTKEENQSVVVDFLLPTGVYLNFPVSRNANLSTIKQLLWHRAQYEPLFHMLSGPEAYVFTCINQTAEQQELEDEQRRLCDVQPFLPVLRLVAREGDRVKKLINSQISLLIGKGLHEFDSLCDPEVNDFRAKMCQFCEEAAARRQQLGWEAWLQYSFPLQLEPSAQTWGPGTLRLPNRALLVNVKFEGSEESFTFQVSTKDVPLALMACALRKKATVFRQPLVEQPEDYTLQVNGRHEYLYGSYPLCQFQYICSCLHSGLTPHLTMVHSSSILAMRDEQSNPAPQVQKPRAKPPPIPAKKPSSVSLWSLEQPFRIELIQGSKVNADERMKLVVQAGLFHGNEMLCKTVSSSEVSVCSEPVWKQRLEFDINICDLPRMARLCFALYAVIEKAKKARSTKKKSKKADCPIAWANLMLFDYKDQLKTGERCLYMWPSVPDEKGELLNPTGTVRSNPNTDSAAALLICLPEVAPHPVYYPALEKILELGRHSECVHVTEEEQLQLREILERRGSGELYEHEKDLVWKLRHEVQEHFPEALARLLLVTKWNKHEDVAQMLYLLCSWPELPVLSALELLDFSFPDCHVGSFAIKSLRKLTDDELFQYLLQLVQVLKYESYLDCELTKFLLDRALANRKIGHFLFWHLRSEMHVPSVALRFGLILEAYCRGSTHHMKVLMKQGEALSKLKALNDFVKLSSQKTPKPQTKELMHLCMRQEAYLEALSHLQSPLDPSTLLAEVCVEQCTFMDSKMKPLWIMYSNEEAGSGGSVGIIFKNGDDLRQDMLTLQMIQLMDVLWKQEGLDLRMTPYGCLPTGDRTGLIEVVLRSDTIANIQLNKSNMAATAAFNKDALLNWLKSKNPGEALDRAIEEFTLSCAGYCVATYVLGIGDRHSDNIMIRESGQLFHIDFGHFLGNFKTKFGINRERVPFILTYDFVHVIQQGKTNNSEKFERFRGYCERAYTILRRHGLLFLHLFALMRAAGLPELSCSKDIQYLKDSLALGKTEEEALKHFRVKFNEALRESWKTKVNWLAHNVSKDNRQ
T2 sequence (P27986 whole entry partner): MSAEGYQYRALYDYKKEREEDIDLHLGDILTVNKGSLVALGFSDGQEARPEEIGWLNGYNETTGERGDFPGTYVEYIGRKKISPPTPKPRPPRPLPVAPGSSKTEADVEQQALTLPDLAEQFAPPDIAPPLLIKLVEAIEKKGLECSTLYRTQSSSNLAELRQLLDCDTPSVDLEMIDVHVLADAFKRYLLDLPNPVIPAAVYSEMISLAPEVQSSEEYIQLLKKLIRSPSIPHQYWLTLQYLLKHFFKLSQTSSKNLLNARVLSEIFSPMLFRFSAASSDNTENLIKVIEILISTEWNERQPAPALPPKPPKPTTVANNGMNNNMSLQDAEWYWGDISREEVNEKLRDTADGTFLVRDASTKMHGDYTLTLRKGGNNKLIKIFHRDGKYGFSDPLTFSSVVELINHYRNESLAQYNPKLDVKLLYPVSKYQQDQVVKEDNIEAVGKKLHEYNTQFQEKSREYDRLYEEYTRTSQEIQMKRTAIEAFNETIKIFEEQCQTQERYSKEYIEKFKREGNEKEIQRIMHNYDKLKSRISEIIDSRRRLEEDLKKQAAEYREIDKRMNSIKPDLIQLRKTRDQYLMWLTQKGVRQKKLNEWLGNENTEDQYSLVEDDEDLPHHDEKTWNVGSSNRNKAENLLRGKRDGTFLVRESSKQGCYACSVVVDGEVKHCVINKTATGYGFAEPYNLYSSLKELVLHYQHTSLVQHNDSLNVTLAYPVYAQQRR
T4 sequence (P42338 whole entry): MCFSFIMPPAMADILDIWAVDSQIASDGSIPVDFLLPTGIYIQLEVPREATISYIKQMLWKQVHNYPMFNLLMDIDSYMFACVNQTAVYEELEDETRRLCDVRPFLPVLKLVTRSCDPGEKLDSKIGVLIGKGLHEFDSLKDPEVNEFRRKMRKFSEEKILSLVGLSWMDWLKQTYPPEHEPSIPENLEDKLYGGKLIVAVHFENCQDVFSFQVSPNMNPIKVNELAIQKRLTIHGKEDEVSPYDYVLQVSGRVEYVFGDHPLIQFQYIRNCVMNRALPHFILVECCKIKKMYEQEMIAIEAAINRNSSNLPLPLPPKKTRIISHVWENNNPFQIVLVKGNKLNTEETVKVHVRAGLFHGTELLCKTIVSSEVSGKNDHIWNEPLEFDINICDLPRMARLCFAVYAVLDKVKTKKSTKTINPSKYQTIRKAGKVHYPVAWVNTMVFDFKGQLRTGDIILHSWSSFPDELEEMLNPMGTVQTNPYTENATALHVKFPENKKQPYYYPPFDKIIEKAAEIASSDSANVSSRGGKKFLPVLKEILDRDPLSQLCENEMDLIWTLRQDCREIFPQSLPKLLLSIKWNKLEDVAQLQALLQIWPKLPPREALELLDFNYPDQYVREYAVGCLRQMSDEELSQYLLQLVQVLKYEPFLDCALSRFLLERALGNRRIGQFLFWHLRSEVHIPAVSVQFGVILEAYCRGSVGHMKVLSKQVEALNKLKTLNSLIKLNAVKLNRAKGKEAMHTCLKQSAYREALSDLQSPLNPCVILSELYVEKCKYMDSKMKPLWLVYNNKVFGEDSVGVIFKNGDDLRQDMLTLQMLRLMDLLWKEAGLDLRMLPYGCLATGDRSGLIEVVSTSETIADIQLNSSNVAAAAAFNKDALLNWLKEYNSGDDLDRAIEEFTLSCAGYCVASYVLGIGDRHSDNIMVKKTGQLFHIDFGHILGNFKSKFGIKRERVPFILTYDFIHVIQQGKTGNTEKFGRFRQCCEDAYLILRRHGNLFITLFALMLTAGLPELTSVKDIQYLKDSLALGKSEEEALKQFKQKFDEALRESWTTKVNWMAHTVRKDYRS
T4 sequence (P27986 whole entry partner): as the sequence (P27986 whole entry partner) above
T3 sequence (P42336 whole entry): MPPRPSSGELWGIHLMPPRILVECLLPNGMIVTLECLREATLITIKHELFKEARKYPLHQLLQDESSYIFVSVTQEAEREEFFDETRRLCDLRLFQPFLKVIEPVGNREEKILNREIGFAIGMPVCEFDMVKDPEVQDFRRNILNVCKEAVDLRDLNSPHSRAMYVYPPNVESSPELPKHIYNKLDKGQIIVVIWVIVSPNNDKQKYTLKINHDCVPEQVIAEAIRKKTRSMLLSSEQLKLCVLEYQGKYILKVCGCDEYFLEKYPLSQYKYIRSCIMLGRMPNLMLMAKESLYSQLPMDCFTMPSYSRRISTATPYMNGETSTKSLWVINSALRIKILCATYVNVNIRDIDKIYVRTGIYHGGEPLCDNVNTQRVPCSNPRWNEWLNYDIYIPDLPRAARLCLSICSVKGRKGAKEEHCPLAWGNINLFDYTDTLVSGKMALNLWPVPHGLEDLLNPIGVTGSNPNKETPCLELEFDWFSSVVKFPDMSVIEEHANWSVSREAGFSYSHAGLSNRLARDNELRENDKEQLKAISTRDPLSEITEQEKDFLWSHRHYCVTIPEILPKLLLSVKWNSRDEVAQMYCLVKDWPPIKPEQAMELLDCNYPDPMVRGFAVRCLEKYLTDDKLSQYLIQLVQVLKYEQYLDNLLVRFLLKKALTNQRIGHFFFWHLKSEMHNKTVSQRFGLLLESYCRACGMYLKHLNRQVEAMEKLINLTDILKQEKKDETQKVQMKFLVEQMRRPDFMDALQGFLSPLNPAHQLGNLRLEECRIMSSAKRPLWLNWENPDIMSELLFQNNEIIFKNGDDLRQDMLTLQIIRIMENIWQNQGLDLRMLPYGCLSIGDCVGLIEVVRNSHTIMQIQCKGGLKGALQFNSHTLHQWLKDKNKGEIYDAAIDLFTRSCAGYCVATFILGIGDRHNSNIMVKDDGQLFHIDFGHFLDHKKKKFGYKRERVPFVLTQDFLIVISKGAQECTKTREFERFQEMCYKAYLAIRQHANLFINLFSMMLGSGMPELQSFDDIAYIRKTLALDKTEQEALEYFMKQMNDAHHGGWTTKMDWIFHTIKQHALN
T3 sequence (P27986 whole entry partner): as the sequence (P27986 whole entry partner) above

Take `CC(=O)Nc1cc(-c2cc([C@@H](c3ccc(Cl)cc3)N(C)C)c(-c3nnc[nH]3)s2)ccn1` (single isomer, unassigned) [Compound 204]: the inhibition at 1 µM turned out to be 25% at Human PI3K gamma and 90% at Human PI3K delta. Moreover, the inhibition at 1.1 µM on Human PI3K alpha worked out at 70%; on Human PI3K beta it was 101%.

Consider `CC(=O)Nc1cc(-c2cc(C(c3ccc(Cl)cc3)N3CCN(C)CC3)c(-c3nnc[nH]3)s2)ccn1` (centres unmarked) [Compound 267], for which the values for the inhibition at 1 µM at Human PI3K gamma and on Human PI3K delta were 43% and 111%, respectively. Further, the values for the inhibition at 1.1 µM at Human PI3K alpha and at Human PI3K beta were 100% and 113%, respectively.

Turning to `O=C(Nc1cc(-c2cc(C(c3ccc(Cl)cc3)N3CCNCC3)c(-c3nnc[nH]3)s2)ccn1)C1CC1` (centres unmarked) [Compound 146], the inhibition at 1 µM on Human PI3K gamma worked out at 23%; at Human PI3K delta, 110%. For the same compound, the inhibition at 1.1 µM stood at 67% on Human PI3K alpha and 103% on Human PI3K beta.

In the case of `OC(c1ccc2c(c1)OCO2)c1cc(-c2ccncc2)sc1-c1nnc[nH]1` (centres unmarked) [Compound 256], the inhibition at 1 µM at Human PI3K gamma is 8%; at Human PI3K delta, 57%. The inhibition at 1.1 µM at Human PI3K alpha came out at 25%; at Human PI3K beta, 87%.

Consider `OC(c1ccc2ncccc2c1)c1cc(-c2ccncc2)sc1-c1nnc[nH]1` (centres unmarked) [Compound 257], for which the inhibition at 1 µM turned out to be 30% on Human PI3K gamma and 68% on Human PI3K delta. The results for the inhibition at 1.1 µM at Human PI3K alpha and at Human PI3K beta were 31% and 97%, respectively.

With `CC(=O)Nc1cc(-c2cc(C(c3ccc(Cl)cc3)N(C)C3CNC3)c(-c3nnc[nH]3)s2)ccn1` (centres unmarked) [Compound 277], the “p110 gamma Percent Inhibition” value on Human PI3K gamma stood at 55%. In addition, at Human PI3K delta, the “p110 delta Percent Inhibition” value was 116%. Further, the “p110 alpha Percent Inhibition” value at Human PI3K alpha is 95%. At Human PI3K beta, the “p110 beta Percent Inhibition” value was 97%.

For `CC(=O)Nc1cc(-c2cc(C(NCCO)c3ccc(Cl)cc3)c(-c3nnc[nH]3)s2)ccn1` (centres unmarked) [Compound 226], the figures for the inhibition at 1 µM at Human PI3K gamma and on Human PI3K delta were 14% and 93%, respectively. The inhibition at 1.1 µM on Human PI3K alpha stood at 46%; on Human PI3K beta, 98%.

As to `OC(c1ccc2ccccc2n1)c1cc(-c2ccncc2)sc1-c1nnc[nH]1` (centres unmarked) [Compound 171], the inhibition at 1 µM was found to be 60% on Human PI3K gamma and 99% at Human PI3K delta. Also, the values for the inhibition at 1.1 µM at Human PI3K alpha and on Human PI3K beta were 59% and 106%, respectively.

On to `OC(c1cc(-c2ccncc2)sc1-c1nnc[nH]1)c1ccnc2ccccc12` (centres unmarked) [Compound 175], for which the inhibition at 1 µM was found to be 7% on Human PI3K gamma and 36% on Human PI3K delta. For the same compound, the inhibition at 1.1 µM is 19% on Human PI3K alpha and 85% on Human PI3K beta.

`COc1cnc(Cl)cc1-c1cc(C(O)c2ccc(Cl)cc2)c(-c2nnc[nH]2)s1` (centres unmarked) [Compound 197]: the inhibition at 1 µM was found to be 4% on Human PI3K gamma and 19% at Human PI3K delta. For the same compound, the inhibition at 1.1 µM on Human PI3K alpha was determined as 15%; on Human PI3K beta, 23%.

As for `N#Cc1c(N2CCOCC2)sc(C(=O)O)c1C(CCO)c1ccc2ccccc2c1` (centres unmarked) [Compound 313], the “p110 gamma Percent Inhibition” value at Human PI3K gamma is 30%. Besides, the inhibition at 1 µM at Human PI3K delta amounted to 86%. The “p110 alpha Percent Inhibition” value on Human PI3K alpha was 73%. Besides, the inhibition at 1.1 µM on Human PI3K beta worked out at 117%.

For the compound `c1ccc2cc(Cc3cc(N4CCOCC4)sc3-c3nnn[nH]3)ccc2c1` [Compound 356], the results for the inhibition at 1 µM on Human PI3K gamma and on Human PI3K delta were 23% and 72%, respectively. In addition, the figures for the inhibition at 1.1 µM on Human PI3K alpha and at Human PI3K beta were 11% and 95%, respectively.

On to `CC(=O)Nc1cc(-c2cc(C(c3ccc(Cl)cc3)N3CC(N(C)C)C3)c(-c3nnc[nH]3)s2)ccn1` (centres unmarked) [Compound 181, N-{4-[4-{(4-chlorophenyl)[3-(dimethylamino)azetidin-1-yl]-methyl}-5-(4H-1,2,4-triazol-3-yl)-2-thienyl]pyridin-2-yl}acetamide], for which, on Human PI3K gamma, the “p110 gamma Percent Inhibition” value is given as 35%. Further, the “p110 delta Percent Inhibition” value at Human PI3K delta worked out at 108%. On Human PI3K alpha, the “p110 alpha Percent Inhibition” value was 85%. Also, on Human PI3K beta, the “p110 beta Percent Inhibition” value is 91%.

`CC(c1ccc2cc(F)ccc2c1)c1c(C(=O)O)sc(N2CCOCC2)c1C#N` (centres unmarked) [Compound 369]: at Human PI3K gamma, the “p110 gamma Percent Inhibition” value amounted to 65%. Further, on Human PI3K delta, the “p110 delta Percent Inhibition” value is given as 109%. Further, the “p110 alpha Percent Inhibition” value at Human PI3K alpha was 109%. Also, the “p110 beta Percent Inhibition” value on Human PI3K beta amounted to 115%.

Turning to `CC(=O)Nc1cc(-c2cc(C(O)(C3=CCOCC3)c3ccc(Cl)cc3)c(-c3nnc[nH]3)s2)ccn1` (centres unmarked) [Compound 273], the values for the inhibition at 1 µM on Human PI3K gamma and on Human PI3K delta were 7% and 98%, respectively. Besides, the values for the inhibition at 1.1 µM on Human PI3K alpha and on Human PI3K beta were 88% and 73%, respectively.

`CC(=O)Nc1cc(-c2cc(C(c3ccc(Cl)cc3)N3CCC(CN)C3)c(-c3nnc[nH]3)s2)ccn1` (centres unmarked) [Compound 139]: the results for the inhibition at 1 µM on Human PI3K gamma and at Human PI3K delta were 24% and 105%, respectively. The inhibition at 1.1 µM was 77% at Human PI3K alpha and 100% on Human PI3K beta.

In the case of `Cc1ccc(C(O)c2cc(-c3ccncc3)sc2-c2nnc[nH]2)c(C)c1` (centres unmarked) [Compound 141], the inhibition at 1 µM on Human PI3K gamma is 15%; on Human PI3K delta, 66%. Besides, the values for the inhibition at 1.1 µM on Human PI3K alpha and at Human PI3K beta were 17% and 89%, respectively.

`COc1cc(C(O)c2cc(-c3ccncc3)sc2-c2ncn[nH]2)c(F)cc1Cl` (centres unmarked) [Compound 186]: the inhibition at 1 µM on Human PI3K gamma stood at 65%; at Human PI3K delta, 92%. For the same compound, the inhibition at 1.1 µM amounted to 68% on Human PI3K alpha and 109% on Human PI3K beta.

`N#Cc1c(N2CCOCC2)sc(-c2nnn[nH]2)c1Cc1ccc2ccccc2c1` [Compound 316, 2-(morpholin-4-yl)-4-(2-naphthylmethyl)-5-(1H-tetrazol-5-yl)thiophene-3-carbonitrile]: the inhibition at 1 µM at Human PI3K gamma was found to be 62%; on Human PI3K delta, 111%. Further, the inhibition at 1.1 µM at Human PI3K alpha was determined as 78%; on Human PI3K beta, 106%.

With `CC(c1ccc2ccccc2c1)c1c(C(=O)O)sc(N2CCOCC2)c1C#N` (centres unmarked) [Compound 333], the values for the inhibition at 1 µM on Human PI3K gamma and at Human PI3K delta were 55% and 74%, respectively. The inhibition at 1.1 µM on Human PI3K alpha stood at 63%; on Human PI3K beta it was 95%.

With `CC(=O)Nc1cc(-c2cc(C(c3ccc(Cl)cc3)N3CCNCC3)c(-c3nnc[nH]3)s2)ccn1` (centres unmarked) [Compound 154], the inhibition at 1 µM was found to be 39% on Human PI3K gamma and 108% at Human PI3K delta. Moreover, the figures for the inhibition at 1.1 µM on Human PI3K alpha and at Human PI3K beta were 79% and 108%, respectively.

As for `OC(c1cc(-c2ccncc2)sc1-c1nnc[nH]1)c1c(F)ccc2ccccc12` (centres unmarked) [Compound 203], the “p110 gamma Percent Inhibition” value on Human PI3K gamma was determined as 16%. Moreover, the “p110 delta Percent Inhibition” value at Human PI3K delta was 67%. For the same compound, the “p110 alpha Percent Inhibition” value on Human PI3K alpha was 10%. Further, on Human PI3K beta, the “p110 beta Percent Inhibition” value was determined as 88%.

Regarding `CC(=O)Nc1cc(-c2cc(C(c3ccc(Cl)cc3)N3CCC[C@H]3CO)c(-c3nnc[nH]3)s2)ccn1` (single isomer, unassigned) [Compound 192], the “p110 gamma Percent Inhibition” value on Human PI3K gamma is given as 12%. Further, the “p110 delta Percent Inhibition” value at Human PI3K delta amounted to 100%. The “p110 alpha Percent Inhibition” value at Human PI3K alpha came out at 48%. Also, the “p110 beta Percent Inhibition” value on Human PI3K beta is 90%.

On to `N#Cc1c(-c2ccnnc2)sc(-c2nnc[nH]2)c1C(O)c1ccc2ccccc2c1` (centres unmarked) [Compound 198], for which the inhibition at 1 µM at Human PI3K gamma is 35%; at Human PI3K delta, 70%. The inhibition at 1.1 µM amounted to 18% at Human PI3K alpha and 108% at Human PI3K beta.

Regarding `Clc1ccc(C(c2cc(-c3ccnc(Cl)c3)sc2-c2nnc[nH]2)N2CCC2)cc1` (centres unmarked) [Compound 251], the inhibition at 1 µM is 12% at Human PI3K gamma and 44% on Human PI3K delta. Further, the inhibition at 1.1 µM is 14% at Human PI3K alpha and 96% at Human PI3K beta.

In the case of `O=C(O)c1sc(N2CCOCC2)nc1Cc1ccc2c(F)cccc2c1` [Compound 340], the inhibition at 1 µM at Human PI3K gamma turned out to be 59%; at Human PI3K delta it was 104%. Also, the inhibition at 1.1 µM came out at 48% on Human PI3K alpha and 113% at Human PI3K beta.
